Measured values: patent US10179794B2, “Thieno[3,2-d]pyrimidine, furo[3,2-d]pyrimidine, and pyrrolo[3,2-D]pyrimidines useful for treating respiratory syncitial virus infections” (Gilead Sciences, Inc., priority 2014, dated 2019)
Like-named read-outs stand apart in the source and are kept apart here.

Tests used:
[1] = tested on: RSV strain A2; assay: Anti-RSV activity, infectious cytopathic cell protection assay in HEp-2 cells; format: cell-based, Respiratory Syncytial Virus (RSV)
Experimental: Antiviral activity against RSV is determined using an infectious cytopathic cell protection assay in HEp-2 cells. In this assay, compounds inhibiting viral infection and/or replication produce a cytoprotective effect against the virus-induced cell killing that can be quantified using a cell viability reagent. The techniques used here are novel adaptations of methods described in published literature (Chapman et al., Antimicrob Agents Chemother. 2007, 51 (9):3346-53.)
HEp-2 cells are obtained from ATCC (Manassas, Va.) and maintained in MEM media supplemented with 10% fetal bovine serum and penicillin/streptomycin. Cells are passaged twice a week and kept at subconfluent stage. Commercial stock of RSV strain A2 (Advanced Biotechnologies, Columbia, Md.) is titered before compound testing to determine the appropriate dilution of the virus stock that generates desirable cytopathic effect in HEp-2 cells.
For antiviral tests, HEp-2 cells are grown in large cell culture flasks to near confluency but not fully so. The compounds to be tested are prediluted in DMSO in 384-well compound dilution plates, either in an 8 or 40 sample per plate standardized dose response format. 3-fold serial dilution increments of each test compound are prepared in the plates and test samples are transferred via acoustic transfer apparatus (Echo, Labcyte) at 100 nl per well into cell culture assay 384-well plates. Each compound dilution is transferred in single or quadruplicate samples into dry assay plates, which are stored until assay is ready to go. The positive and negative controls are laid out in opposite on ends of the plate in vertical blocks (1 column).
Subsequently, an infectious mixture is prepared using an appropriate dilution of virus stock previously determined by titration with cells at a density of 50,000/ml and 20 uL/well is added to test plates w/compounds via automation (uFlow, Biotek). Each plate includes negative and positive controls (16 replicates each) to create 0% and 100% virus inhibition standards, respectively. Following the infection with RSV, testing plates are incubated for 4 days in a 37° C. cell culture incubator. After the incubation, a cell viability reagent, Cell TiterGlo (Promega, Madison, Wis.) is added to the assay plates, which are incubated briefly, and a luminescent readout is measured (Envision, Perkin Elmer) in all the assay plates. The RSV-induced cytopathic effect, percentage inhibition, is determined from the levels of remaining cell viability. These numbers are calculated for each tested concentration relative to the 0% and 100% inhibition controls, and the EC50 value for each compound is determined by non-linear regression as a concentration inhibiting the RSV-induced cytopathic effect by 50%. Various potent anti-RSV tool compounds are used as positive controls for antiviral activity.

[2] = Cytotoxicity assay in MT-4 cells; format: cell-based; settings: human, Cell-Titer Glo
Experimental: (§1) The MT-4 cell line was obtained from the NIH AIDS Research and Reference Reagent Program (Germantown, Md.) and cultured in RPMI-1640 medium (Irvine Scientific, Santa Ana, Calif., Cat #9160) supplemented with 10% FBS, 100 units/mL penicillin, 100 units/mL streptomycin, and 2 mM L-Glutamine. The MT-4 cells were passaged twice per week to maintain cell densities below 0.6×10^6 cells/mL. Complete RPMI-1640 media containing 100× concentrations of 3-fold serially diluted compound, ranging from 26 nM to 530 μM, were stamped in quadruplicate into black 384-well plates. After compound addition, 2×10^3 MT-4 cells were added to each well using a MicroFlo liquid dispenser (BioTek, Winooski, Vt.) and the cells were cultured for 5 days at 37° C. in a 5% CO2 incubator. Following the incubation the cells were allowed to equilibrate to 25° C. and cell viability was determined by adding 25 μL of Cell-Titer Glo viability reagent. The mixture was incubated for 10 minutes at 25° C., and the luminescence signal was quantified on a Victor Luminescence plate reader. The CC50 value is defined as the concentration of compound that reduces cell viability by 50% as determined by the Cell-Titer Glo signal. The data were analyzed using Pipeline Pilot Plate Data Analytics Collection software (Version 7.0, Accelrys, San Diego, Calif.). CC50 values were calculated from a non-linear regression analysis using a 4-parameter sigmoidal dose-response equation: Y=Bottom+(Top-Bottom)/(1+10^[(LogCC50-X)*HillSlope]) where the Top and Bottom were fixed at 100% and 0% cell viability, respectively. CC50 values were calculated as the average± standard deviation of 3 independent experiments.

[3] = Cytotoxicity assay in HEp-2 cells; format: cell-based; settings: human, uninfected HEp-2 cells, CellTiter Glo
Experimental: (§2) Cytotoxicity of tested compounds is determined in uninfected HEp-2 cells in parallel with the antiviral activity using the cell viability reagent in a similar fashion as described before for other cell types (Cihlar et al., Antimicrob Agents Chemother. 2008,52(2):655-65.). The same protocol as for the determination of antiviral activity is used for the measurement of compound cytotoxicity except that the cells are not infected with RSV. Instead, an uninfected cell mixture at the same density is added at 20 ul/well to plates containing prediluted compounds, also at 100 nl/sample. Assay plates are then incubated for 4 days followed by a cell viability test using the same CellTiter Glo reagent addition and measurement of luminescent readouts. Untreated cell and cells treated at 2 uM puromycin (Sigma, St. Louis, Mo.) serve as 100% and 0% cell viability control, respectively. The percent of cell viability is calculated for each tested compound concentration relative to the 0% and 100% controls and the CC50 value is determined by non-linear regression as a compound concentration reducing the cell viability by 50%.

[4] = biological target: T1, RSV ribonucleoprotein (RNP) complexes (Human respiratory syncytial virus A, UniProt P28887); assay: RSV RNP assay (inhibition of RSV RNP transcription); format: biochemical, RSV A2; settings: crude RSV RNP complexes, 90 minute incubation at 30° C., total radiolabled transcripts reduced by 50%
T1 construct: The supernatant (S3) fraction, containing the enriched RSV RNP complexes, was collected; endogenous in cells; host or cells: HEp-2 cells infected with RSV A2; detergent-extracted S3 fraction (crude RNP)
Experimental: RSV ribonucleoprotein (RNP) complexes were prepared from a method modified from Mason et al (1). HEp-2 cells were plated at a density of 7.1×10^4 cells/cm^2 in MEM+10% fetal bovine serum (FBS) and allowed to attach overnight at 37° C. (5% CO2). Following attachment, the cells were infected with RSV A2 (MOI=5) in 35 mL MEM+2% FBS. At 20 hours post-infection, the media was replaced with MEM+2% FBS supplemented with 2 m/mL actinomycin D and returned to 37° C. for one hour. The cells were then washed once with PBS and treated with 35 mL of PBS+250 m/mL lyso-lecithin for one minute, after which all liquid was aspirated. The cells were harvested by scrapping them into 1.2 mL of buffer A [50 mM TRIS acetate (pH 8.0), 100 mM potassium acetate, 1 mM DTT and 2 m/mL actinomycin D] and lysed by repeated passage through an 18 gauge needle (10 times). The cell lysate was placed in ice for 10 minutes and then centrifuged at 2400 g for 10 minutes at 4° C. The supernatant (S1) was removed and the pellet (P1) was disrupted in 600 uL of Buffer B [10 mM TRIS acetate (pH 8.0), 10 mM potassium acetate and 1.5 mM MgCl2] supplemented with 1% Triton X-100 by repeated passage through an 18 gauge needle (10 times). The resuspended pellet was placed in ice for 10 minutes and then centrifuged at 2400 g for 10 minutes at 4° C. The supernatant (S2) was removed and the pellet (P2) was disrupted in 600 uL of Buffer B supplemented with 0.5% deoxycholate and 0.1% Tween 40. The resuspended pellet was placed in ice for 10 minutes and then centrifuged at 2400 g for 10 minutes at 4° C. The supernatant (S3) fraction, containing the enriched RSV RNP complexes, was collected and the protein concentration determined by UV absorbance at 280 nm. Aliquoted RSV RNP S3 fractions were stored at −80° C.
Transcription reactions contained 25 μg of crude RSV RNP complexes in 30 μL of reaction buffer [50 mM TRIS-acetate (pH 8.0), 120 mM potassium acetate, 5% glycerol, 4.5 mM MgCl2, 3 mM DTT, 2 mM ethyleneglycol-bis(2-aminoethylether)-tetraacetic acid (EGTA), 50 μg/mL BSA, 2.5 U RNasin (Promega), ATP, GTP, UTP, CTP and 1.5 uCi [α-^32P] NTP (3000 Ci/mmol)]. The radiolabled nucleotide used in the transcription assay was selected to match the nucleotide analog being evaluated for inhibition of RSV RNP transcription. Cold, competitive NTP was added at a final concentration of one-half its Km (ATP=20 μM, GTP=12.5 μM, UTP=6 μM and CTP=2 μM). The three remaining nucleotides were added at a final concentration of 100 μM.
To determine whether nucleotide analogs inhibited RSV RNP transcription, compounds were added using a 6 step serial dilution in 5-fold increments. Following a 90 minute incubation at 30° C., the RNP reactions were stopped with 350 μL of Qiagen RLT lysis buffer and the RNA was purified using a Qiagen RNeasy 96 kit. […]

[5] = tested on: MT-4 cells; assay: Cytotoxicity assay in MT-4 cells; format: cell-based; settings: 5 days, Cell-Titer Glo
Experimental: as §1

[6] = tested on: HEp-2 cells; assay: Cytotoxicity assay in HEp-2 cells; format: cell-based; settings: uninfected HEp-2 cells, 4 days, CellTiter Glo
Experimental: as §2

[7] = human respiratory syncytial virus, 96 h, RSV A2-induced cytopathic effect in HEp-2 cells, 4 days, Cell TiterGlo, read-out: EC50

T1 sequence (P28887 whole entry): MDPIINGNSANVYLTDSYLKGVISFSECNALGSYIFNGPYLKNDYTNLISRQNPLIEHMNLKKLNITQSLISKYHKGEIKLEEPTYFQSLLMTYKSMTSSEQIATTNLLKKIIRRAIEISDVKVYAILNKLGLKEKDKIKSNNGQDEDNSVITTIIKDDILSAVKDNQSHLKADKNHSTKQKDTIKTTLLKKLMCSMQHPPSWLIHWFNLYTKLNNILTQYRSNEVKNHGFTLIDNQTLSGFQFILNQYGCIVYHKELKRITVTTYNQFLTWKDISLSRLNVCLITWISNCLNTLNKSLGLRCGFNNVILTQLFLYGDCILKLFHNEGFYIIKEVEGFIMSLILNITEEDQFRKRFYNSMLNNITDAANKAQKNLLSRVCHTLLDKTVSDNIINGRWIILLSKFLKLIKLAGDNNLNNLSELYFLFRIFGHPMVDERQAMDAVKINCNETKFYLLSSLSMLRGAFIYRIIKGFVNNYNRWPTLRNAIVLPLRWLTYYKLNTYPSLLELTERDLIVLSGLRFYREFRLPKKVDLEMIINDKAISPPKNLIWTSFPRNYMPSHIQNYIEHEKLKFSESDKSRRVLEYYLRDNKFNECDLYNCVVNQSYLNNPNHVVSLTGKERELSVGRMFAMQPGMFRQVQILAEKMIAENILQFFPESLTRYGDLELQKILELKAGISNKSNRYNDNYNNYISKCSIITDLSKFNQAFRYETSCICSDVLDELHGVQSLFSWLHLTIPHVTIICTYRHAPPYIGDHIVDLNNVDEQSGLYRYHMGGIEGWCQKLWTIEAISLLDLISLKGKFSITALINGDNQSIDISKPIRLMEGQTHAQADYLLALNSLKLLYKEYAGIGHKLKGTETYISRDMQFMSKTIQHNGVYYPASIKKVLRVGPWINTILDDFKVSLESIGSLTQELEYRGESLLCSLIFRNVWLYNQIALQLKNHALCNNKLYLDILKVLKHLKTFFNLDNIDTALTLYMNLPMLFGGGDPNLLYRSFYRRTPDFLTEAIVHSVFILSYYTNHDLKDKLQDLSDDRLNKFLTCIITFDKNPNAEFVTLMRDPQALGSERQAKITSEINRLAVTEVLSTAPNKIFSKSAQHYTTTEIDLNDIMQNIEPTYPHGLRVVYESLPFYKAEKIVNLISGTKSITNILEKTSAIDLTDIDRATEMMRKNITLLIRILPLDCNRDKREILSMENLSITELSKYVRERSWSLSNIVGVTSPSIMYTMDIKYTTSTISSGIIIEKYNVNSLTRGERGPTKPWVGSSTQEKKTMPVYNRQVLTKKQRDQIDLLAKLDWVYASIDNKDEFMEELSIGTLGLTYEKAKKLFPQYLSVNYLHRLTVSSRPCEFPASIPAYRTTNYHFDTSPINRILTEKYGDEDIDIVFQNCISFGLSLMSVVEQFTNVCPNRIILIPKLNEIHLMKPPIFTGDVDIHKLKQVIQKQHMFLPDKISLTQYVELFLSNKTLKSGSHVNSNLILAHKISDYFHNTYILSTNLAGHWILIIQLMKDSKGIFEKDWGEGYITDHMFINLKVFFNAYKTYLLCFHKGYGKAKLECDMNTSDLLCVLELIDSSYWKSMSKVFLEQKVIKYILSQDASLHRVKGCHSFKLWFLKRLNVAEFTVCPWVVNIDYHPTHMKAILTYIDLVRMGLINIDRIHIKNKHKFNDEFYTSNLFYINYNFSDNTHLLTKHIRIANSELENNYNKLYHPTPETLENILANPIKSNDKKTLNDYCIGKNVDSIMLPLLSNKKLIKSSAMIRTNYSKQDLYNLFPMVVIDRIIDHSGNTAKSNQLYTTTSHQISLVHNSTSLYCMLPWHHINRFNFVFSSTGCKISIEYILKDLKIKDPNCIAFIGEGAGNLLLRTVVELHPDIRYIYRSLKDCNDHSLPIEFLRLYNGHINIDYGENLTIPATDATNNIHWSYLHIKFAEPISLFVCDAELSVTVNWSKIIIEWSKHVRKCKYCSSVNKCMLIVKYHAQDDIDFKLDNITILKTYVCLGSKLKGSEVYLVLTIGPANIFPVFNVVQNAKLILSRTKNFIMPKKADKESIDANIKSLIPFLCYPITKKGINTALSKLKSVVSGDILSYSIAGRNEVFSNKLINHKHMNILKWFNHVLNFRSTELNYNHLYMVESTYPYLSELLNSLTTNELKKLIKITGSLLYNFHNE
T1 sequence (P03421 whole entry, further chain): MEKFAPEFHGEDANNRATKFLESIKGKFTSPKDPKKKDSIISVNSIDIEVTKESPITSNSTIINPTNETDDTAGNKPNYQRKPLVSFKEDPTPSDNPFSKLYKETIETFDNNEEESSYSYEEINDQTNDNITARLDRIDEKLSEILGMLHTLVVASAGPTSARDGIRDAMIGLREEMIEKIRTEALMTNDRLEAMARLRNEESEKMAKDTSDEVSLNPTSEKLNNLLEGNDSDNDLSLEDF

Row | EC50 [1, 7] | Compound | CC50 at 5 days [2] | CC50 at 4 days [3] | IC50 [4] | further results
1 | 5 µM | N#C[C@]1(CO)O[C@@H](c2csc3c(N)ncnc23)[C@H](O)[C@@H]1O [Example 3, (2R,3S,4R,5S)-5-(4-aminothieno[3,2-d]pyrimidin-7-yl)-3,4-dihydroxy-2-(hydroxymelthyl)tetrahydrofuran-2-carbonitrile] | > 57 µM | > 50 µM | – | –
2 | 0.208 µM | [N-]=[N+]=N[C@]1(CO)O[C@@H](c2csc3c(N)ncnc23)[C@H](F)[C@@H]1O [Example 1, (2R,3R,4R,5S)-5-(4-aminothieno[3,2-d]pyrimidin-7-yl)-2-azido-4-fluoro-2-(hydroxymethyl)-tetrahydrofuran-3-ol] | 59 µM | > 100 µM | – | –
3 | – | CCOC(=O)[C@H](C)NP(=O)(OC[C@@]1(N=[N+]=[N-])O[C@@H](c2csc3c(N)ncnc23)[C@H](F)[C@@H]1O)Oc1ccccc1 (stereo partly drawn) [Example PD1, (2S)-ethyl 2-(((((2R,3R,4R,5S)-5-(4-aminothieno[3,2-d]pyrimidin-7-yl)-2-azido-4-fluoro-3-hydroxytetrahydrofuran-2-yl)methoxy)(phenoxy)phosphoryl)amino)propanoate] | 10.4 µM | > 50 µM | – | EC50 ([1]; human respiratory syncytial virus, HEp-2, 96 h): 0.556 µM
4 | – | N#C[C@]1(COP(=O)(O)OP(=O)(O)OP(=O)(O)O)O[C@@H](c2csc3c(N)ncnc23)[C@H](F)[C@@H]1O [Example TP2, ((2R,3R,4R,5S)-5-(4-aminothieno[3,2-d]pyrimidin-7-yl)-2-cyano-4-fluoro-3-hydroxytetrahydrofuran-2-yl)methyl tetrahydrogen triphosphate] | – | – | 0.042 µM | –
5 | > 98 µM | [N-]=[N+]=N[C@]1(CO)O[C@@H](c2csc3c(N)ncnc23)[C@H](Cl)[C@@H]1O [Example 4, (2R,3R,4R,5S)-5-(4-Aminothieno[3,2-d]pyrimidin-7-yl)-2-azido-4-chloro-2-(hydroxymethyl)tetrahydrofuran-3-ol] | 93 µM | > 93 µM | – | –
6 | – | N#C[C@]1(COP(=O)(O)OP(=O)(O)OP(=O)(O)O)O[C@@H](c2csc3c(N)ncnc23)[C@H](O)[C@@H]1O [Example TP3, ((2R,3S,4R,5S)-5-(4-aminothieno[3,2-d]pyrimidin-7-yl)-2-cyano-3,4-dihydroxytetrahydrofuran-2-yl)methyl tetrahydrogen triphosphate] | – | – | 0.036 µM | –
7 | – | N#C[C@]1(CO)O[C@@H](c2csc3c(N)ncnc23)[C@H](F)[C@@H]1O [Example 2, (2R,3R,4R,5S)-5-(4-aminothieno[3,2-D]pyrimidin-7-yl)-4-fluoro-3-hydroxy-2-(hydroxymelthyl)tetrahydrofuran-2-carbonitrile] | – | – | – | EC50 ([1]; RSV A2-induced cytopathic effect in HEp-2 cells, 4 days, Cell TiterGlo, read-out: EC50): 6.5 µM; CC50 [5]: > 114 µM; CC50 [6]: > 100 µM
8 | – | [N-]=[N+]=N[C@]1(COP(=O)(O)OP(=O)(O)OP(=O)(O)O)O[C@@H](c2csc3c(N)ncnc23)[C@H](F)[C@@H]1O [Example TP1, ((2R,3R,4R,5S)-5-(4-aminothieno[3,2-d]pyrimidin-7-yl)-2-azido-4-fluoro-3-hydroxytetrahydrofuran-2-yl)methyl tetrahydrogen triphosphate] | – | – | 0.076 µM | –
9 | – | [N-]=[N+]=N[C@]1(COP(=O)(O)OP(=O)(O)OP(=O)(O)O)O[C@@H](c2csc3c(N)ncnc23)[C@H](Cl)[C@@H]1O [Example TP4, ((2R,3R,4R,5S)-5-(4-aminothieno[3,2-d]pyrimidin-7-yl)-2-azido-4-chloro-3-hydroxytetrahydrofuran-2-yl)methyl tetrahydrogen triphosphate] | – | – | 0.2 µM | –
